Measured values reported in PubChem BioAssay (NCI).
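Method: 48-hour compound exposure of cells in 96-well plates, five concentrations, linear interpolation of endpoints. The concentration for 50% growth inhibition is given as GI50. At the TGI there is no net growth.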

Tests used:
Assay in all cases: NCI tumour cell line growth inhibition, 48 h
[1] = tested on: 786-0 renal
[2] = tested on: A498 renal
[3] = tested on: A549 NSCLC
[4] = tested on: ACHN renal
[5] = tested on: BT-549 breast
[6] = tested on: CAKI-1 renal
[7] = tested on: CCRF-CEM leukemia
[8] = tested on: COLO 205 colon
[9] = tested on: DU-145 prostate
[10] = tested on: EKVX NSCLC
[11] = tested on: HCC-2998 colon
[12] = tested on: HCT-116 colon
[13] = tested on: HCT-15 colon
[14] = tested on: HL-60(TB) leukemia
[15] = tested on: HOP-62 NSCLC
[16] = tested on: HOP-92 NSCLC
[17] = tested on: HS 578T breast
[18] = tested on: HT29 colon
[19] = tested on: IGROV1 ovarian
[20] = tested on: K-562 leukemia
[21] = tested on: KM12 colon
[22] = tested on: LOX IMVI melanoma
[23] = tested on: M14 melanoma
[24] = tested on: MALME-3M melanoma
[25] = tested on: MCF7 breast
[26] = tested on: MDA-MB-231 breast
[27] = tested on: MDA-MB-435
[28] = tested on: MOLT-4 leukemia
[29] = tested on: NCI-H226 lung
[30] = tested on: NCI-H460 lung
[31] = tested on: NCI-H522 lung
[32] = tested on: NCI/ADR-RES ovarian
[33] = tested on: OVCAR-4 ovarian
[34] = tested on: OVCAR-5 ovarian
[35] = tested on: OVCAR-8 ovarian
[36] = tested on: PC-3 prostate
[37] = tested on: RPMI-8226 leukemia
[38] = tested on: RXF 393 renal
[39] = tested on: SF-268 CNS
[40] = tested on: SF-295 CNS
[41] = tested on: SF-539 CNS
[42] = tested on: SK-MEL-2 melanoma
[43] = tested on: SK-MEL-28 melanoma
[44] = tested on: SK-MEL-5 melanoma
[45] = tested on: SK-OV-3 ovarian
[46] = tested on: SN12C renal
[47] = tested on: SNB-19 CNS
[48] = tested on: SNB-75 CNS
[49] = tested on: SR leukemia
[50] = tested on: SW-620 colon
[51] = tested on: T-47D breast
[52] = tested on: TK-10 renal
[53] = tested on: U251 CNS
[54] = tested on: UACC-257 melanoma
[55] = tested on: UACC-62 melanoma
[56] = tested on: UO-31 renal

c1n[nH]cc1-c1nc2ccc3[nH]ncc3c2c2c1CCCC2
GI50 [1]: 1.41 µM
TGI [1]: 2.72 µM
GI50 [2]: 0.405 µM
TGI [2]: 1.92 µM
GI50 [3]: 2.01 µM
TGI [3]: 12.3 µM
GI50 [4]: 0.56 µM
TGI [4]: 10.3 µM
GI50 [5]: 1.22 µM
TGI [5]: 2.49 µM
GI50 [6]: 0.511 µM
TGI [6]: 10.4 µM
GI50 [7]: 2.42 µM
TGI [7]: > 100 µM
GI50 [8]: 1.31 µM
TGI [8]: 4.47 µM
GI50 [9]: 1.71 µM
TGI [9]: 11.6 µM
GI50 [10]: 0.887 µM
TGI [10]: 3.33 µM
GI50 [11]: 1.64 µM
TGI [11]: 7.31 µM
GI50 [12]: 0.635 µM
TGI [12]: 7.92 µM
GI50 [13]: 1.38 µM
TGI [13]: 14 µM
GI50 [14]: 1.49 µM
TGI [14]: 5.59 µM
GI50 [15]: 1.75 µM
TGI [15]: 7.68 µM
GI50 [16]: 2.24 µM
TGI [16]: 6.31 µM
GI50 [17]: 0.914 µM
TGI [17]: 4.02 µM
GI50 [18]: 1.67 µM
TGI [18]: 10.9 µM
GI50 [19]: 1.35 µM
TGI [19]: 8.15 µM
GI50 [20]: 3.01 µM
TGI [20]: > 100 µM
GI50 [21]: 2.91 µM
TGI [21]: 8.9 µM
GI50 [22]: 1.15 µM
TGI [22]: 2.91 µM
GI50 [23]: 1.11 µM
TGI [23]: 3.36 µM
GI50 [24]: 1.56 µM
TGI [24]: 4.76 µM
GI50 [25]: 2.42 µM
TGI [25]: 11.7 µM
GI50 [26]: 1.96 µM
TGI [26]: 12 µM
GI50 [27]: 1.4 µM
TGI [27]: 4.38 µM
GI50 [28]: 1.99 µM
TGI [28]: 7.88 µM
GI50 [29]: 1.28 µM
TGI [29]: 3.65 µM
GI50 [30]: 0.783 µM
TGI [30]: 4.85 µM
GI50 [31]: 0.835 µM
TGI [31]: 2.77 µM
GI50 [32]: 2.1 µM
TGI [32]: 6.05 µM
GI50 [33]: 2.35 µM
TGI [33]: 7.93 µM
GI50 [34]: 2.71 µM
TGI [34]: 17.9 µM
GI50 [35]: 1.64 µM
TGI [35]: 4.38 µM
GI50 [36]: 2.37 µM
TGI [36]: 11.6 µM
GI50 [37]: 1.51 µM
TGI [37]: 4.94 µM
GI50 [38]: 1.17 µM
TGI [38]: 2.77 µM
GI50 [39]: 1.95 µM
TGI [39]: 4.63 µM
GI50 [40]: 2.11 µM
TGI [40]: 8.49 µM
GI50 [41]: 1.38 µM
TGI [41]: 3.09 µM
GI50 [42]: 1.26 µM
TGI [42]: 3.12 µM
GI50 [43]: 1.59 µM
TGI [43]: 4.51 µM
GI50 [44]: 1.28 µM
TGI [44]: 3.22 µM
GI50 [45]: 0.68 µM
TGI [45]: 11.6 µM
GI50 [46]: 1.84 µM
TGI [46]: 7.54 µM
GI50 [47]: 2.78 µM
TGI [47]: 9.85 µM
GI50 [48]: 1.31 µM
TGI [48]: 2.88 µM
GI50 [49]: 0.287 µM
TGI [49]: 5.45 µM
GI50 [50]: 0.924 µM
TGI [50]: 6.54 µM
GI50 [51]: 2.21 µM
TGI [51]: 8.18 µM
GI50 [52]: 0.766 µM
TGI [52]: 8.2 µM
GI50 [53]: 2.06 µM
TGI [53]: 12.1 µM
GI50 [54]: 1.86 µM
TGI [54]: 6.64 µM
GI50 [55]: 1.06 µM
TGI [55]: 3.25 µM
GI50 [56]: 1.54 µM
TGI [56]: 7.65 µM

CNC(=O)c1cc(N2CCc3cc(NC(=O)Nc4ccc(N5CCOCC5)c(C(F)(F)F)c4)ccc32)ccn1
GI50 [1]: 1.44 µM
TGI [1]: 18.9 µM
GI50 [2]: 1.69 µM
TGI [2]: 25.1 µM
GI50 [3]: 1.62 µM
TGI [3]: > 33.3 µM
GI50 [4]: 1.9 µM
TGI [4]: > 33.3 µM
GI50 [5]: 1.04 µM
TGI [5]: 2.75 µM
GI50 [6]: 3.84 µM
TGI [6]: > 33.3 µM
GI50 [7]: 1.47 µM
TGI [7]: > 33.3 µM
GI50 [8]: 1.15 µM
TGI [8]: 22 µM
GI50 [9]: 3.04 µM
TGI [9]: > 33.3 µM
GI50 [10]: 4.16 µM
TGI [10]: > 33.3 µM
GI50 [11]: 2.51 µM
TGI [11]: > 33.3 µM
GI50 [12]: 1.17 µM
TGI [12]: 10.5 µM
GI50 [13]: 1.17 µM
TGI [13]: > 33.3 µM
GI50 [14]: 0.904 µM
TGI [14]: 5.5 µM
GI50 [15]: 2.56 µM
TGI [15]: 25 µM
GI50 [16]: 0.899 µM
TGI [16]: 5.54 µM
GI50 [17]: 0.779 µM
TGI [17]: 2.94 µM
GI50 [18]: 1.64 µM
TGI [18]: > 33.3 µM
GI50 [19]: 1.43 µM
TGI [19]: > 33.3 µM
GI50 [20]: 0.996 µM
TGI [20]: > 33.3 µM
GI50 [21]: 0.293 µM
TGI [21]: > 33.3 µM
GI50 [22]: 1.51 µM
TGI [22]: 17.9 µM
GI50 [23]: 1.41 µM
TGI [23]: 25 µM
GI50 [24]: 2.13 µM
TGI [24]: > 33.3 µM
GI50 [25]: 1.56 µM
TGI [25]: > 33.3 µM
GI50 [26]: 2.47 µM
TGI [26]: > 33.3 µM
GI50 [27]: 2.71 µM
TGI [27]: > 33.3 µM
GI50 [28]: 1.21 µM
TGI [28]: 31.1 µM
GI50 [29]: 1.33 µM
TGI [29]: > 33.3 µM
GI50 [30]: 1.21 µM
TGI [30]: 27.3 µM
GI50 [31]: 1.29 µM
TGI [31]: 16.3 µM
GI50 [32]: 2.16 µM
TGI [32]: > 33.3 µM
GI50 [33]: 1.69 µM
TGI [33]: > 33.3 µM
GI50 [34]: 4.95 µM
TGI [34]: > 33.3 µM
GI50 [35]: 1.8 µM
TGI [35]: > 33.3 µM
GI50 [36]: 1.17 µM
TGI [36]: > 33.3 µM
GI50 [37]: 0.614 µM
TGI [37]: 2.5 µM
GI50 [38]: 0.775 µM
TGI [38]: 2.11 µM
GI50 [39]: 5.7 µM
TGI [39]: > 33.3 µM
GI50 [40]: 0.689 µM
TGI [40]: 2.55 µM
GI50 [41]: 0.6 µM
TGI [41]: > 33.3 µM
GI50 [42]: 1.13 µM
TGI [42]: 5.73 µM
GI50 [43]: 3.52 µM
TGI [43]: > 33.3 µM
GI50 [44]: 1.1 µM
TGI [44]: 4.72 µM
GI50 [45]: 7.16 µM
TGI [45]: > 33.3 µM
GI50 [46]: 1.26 µM
TGI [46]: > 33.3 µM
GI50 [47]: 3.87 µM
TGI [47]: > 33.3 µM
GI50 [48]: 1.14 µM
TGI [48]: 13.8 µM
GI50 [49]: 0.946 µM
TGI [49]: > 33.3 µM
GI50 [50]: 2.34 µM
TGI [50]: > 33.3 µM
GI50 [51]: 0.908 µM
TGI [51]: 9.03 µM
GI50 [52]: 11.3 µM
TGI [52]: > 33.3 µM
GI50 [53]: 1.32 µM
TGI [53]: > 33.3 µM
GI50 [54]: 3.23 µM
TGI [54]: > 33.3 µM
GI50 [55]: 0.776 µM
TGI [55]: 1.97 µM
GI50 [56]: 1.21 µM
TGI [56]: 25.1 µM
